Test results from PubChem BioAssay (NCI).
Where “and” joins values, the source holds several entries; their conditions need not be identical. Equal values may be shown once.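 Following 48 hours of exposure in 96-well plates, responses at five concentrations were used to interpolate endpoints linearly. GI50 = concentration required for 50% inhibition of growth. TGI marks complete inhibition of growth.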 Starred links: 1 amine or outer side, 2 acyl side, 3 side chain; linkers in the order of their positions; H or OH if unused. Positions of bridges follow the written chain, without caps; N, C: chain ends. Non-standard residues stand in square brackets, D forms with d. Residues, ends and D or L forms follow the SMILES beside them. Chains are numbered I, II in the order given. Actinocin(1to9) = Cc1c2oc3c(C)ccc(C(=O)[*:2])c3nc-2c(C(=O)[*:1])c(N)c1=O; NMeV = CN[CH](C(=O)O)C(C)C; Sar = CNCC(=O)O

Key:
Experiment in all cases: inhibition of tumour cell growth, NCI panel, 48 h
[1] = test system: 786-0 renal
[2] = test system: HCT-116 colon
[3] = test system: HL-60(TB) leukemia
[4] = test system: MDA-N
[5] = test system: RXF 393 renal
[6] = test system: SK-MEL-28 melanoma
[7] = test system: SR leukemia
[8] = test system: UACC-62 melanoma
[9] = test system: EKVX NSCLC
[10] = test system: HS 578T breast
[11] = test system: LOX IMVI melanoma
[12] = test system: SNB-75 CNS

Row | SMILES | TGI [1] | TGI [2] | TGI [3] | TGI [4] | TGI [5] | TGI [6] | TGI [7] | TGI [8] | TGI [9] | TGI [10] | TGI [11] | TGI [12] | GI50 [9] | GI50 [2] | GI50 [10] | GI50 [11] | GI50 [5] | GI50 [6] | GI50 [12]
1 | CCOC(=O)C(/C(=N/S(=O)(=O)c1cc(C)c(Cl)cc1[S-])[n+]1ccc(N(C)C)cc1)=C(/O)c1ccc([N+](=O)[O-])cc1 | > 100 µM | 36.7 µM | 64.5 µM | > 100 µM | > 100 µM | 83.5 µM | > 100 µM | > 100 µM | – | – | – | – | – | – | – | – | – | – | –
2 | CC(C)(C)OC(=O)n1c2ccccc2c2c(=O)nc(N3CCCCC3)sc21 | > 100 µM | – | > 100 µM | > 100 µM | – | > 100 µM | > 100 µM | > 100 µM | > 100 µM | > 100 µM | > 100 µM | > 100 µM | – | – | – | – | – | – | –
3 | O=C(O[C@@H](/C=C/c1ccccc1)P1(=O)N(Cc2ccccc2)[C@H]2CCCC[C@@H]2N1Cc1ccccc1)c1ccccc1 | > 100 µM | > 100 µM | 7.66 µM | > 100 µM | 7.85 µM | > 100 µM | 13.8 µM | 7.47 µM | > 100 µM | > 100 µM | 14 µM | > 100 µM | – | – | – | – | – | – | –
4 | O=c1[nH]c(Nc2ccc(Cl)c(C(F)(F)F)c2)nc2nc[nH]c12 | 74.8 µM | > 100 µM | – | > 100 µM | > 100 µM | – | – | > 100 µM | > 100 µM | > 100 µM | 81.7 µM | > 100 µM | – | – | – | – | – | – | –
5 | OC(c1ccccc1)(c1ccccc1)c1nccc2ccccc12 | > 100 µM | 97 µM | > 100 µM | > 100 µM | – | > 100 µM | > 100 µM | > 100 µM | 83.5 µM | > 100 µM | 44.3 µM | – | – | – | – | – | – | – | –
6 | Cc1c(N2C(=O)/C(=C/c3ccc(Cl)cc3)N=C2c2ccccc2)c(=O)n(-c2ccccc2)n1C | > 100 µM | > 100 µM | 57 µM | 71.6 µM | 76.8 µM | – | 76.3 µM | 47.1 µM | 63.4 µM | – | 35.6 µM | 80.3 µM | – | – | – | – | – | – | –
7 | Nc1ncnc2c1sc1nc3ccccc3n12 | – | – | – | – | > 69.1 µM | > 100 µM | – | > 100 µM | > 100 µM | > 96.4 µM | – | > 51.2 µM | – | – | – | – | – | – | –
8 | Cc1coc2c1C[C@@]1(C)[C@H](CCC[C@@H]1C)[C@H]2O | – | > 100 µM | 44.6 µM | > 100 µM | 48.8 µM | > 100 µM | 64.8 µM | > 100 µM | > 100 µM | > 100 µM | > 100 µM | – | – | – | – | – | – | – | –
9 | N#CC12Cc3cc4c(cc3-c3cccc(c31)CCN2C(=O)c1ccccc1)OCO4 (centres undefined) | – | > 100 µM | > 100 µM | – | > 100 µM | > 100 µM | > 100 µM | > 100 µM | > 100 µM | – | > 100 µM | 62.8 µM | – | – | – | – | – | – | –
10 | c1ccc(-c2nnn3c2NC2=C(CCCC2)C3c2ccccc2)cc1 (centres undefined) | 36.4 µM | 24.3 µM | 37.2 µM | 32.3 µM | 34.9 µM | – | 31.1 µM | 33.7 µM | – | 81.7 µM | 27 µM | – | – | – | – | – | – | – | –
11 | COc1ccc(C(=O)C2=NON3OC23C(=O)c2ccc(OC)cc2)cc1 (centres undefined) | 10.6 µM | 19.6 µM | – | – | 17.1 µM | 32.7 µM | – | 37 µM | 34.1 µM | – | 11.4 µM | 43.6 µM | – | – | – | – | – | – | –
12 | COc1cc2oc(=O)ccc2cc1C(=O)CC(C)C | > 100 µM | > 100 µM | > 100 µM | > 100 µM | – | > 100 µM | > 100 µM | > 100 µM | > 100 µM | > 100 µM | > 100 µM | > 100 µM | – | – | – | – | – | – | –
13 | Cn1cnc([N+](=O)[O-])c1Sc1nc(N)nc2c1ncn2C1OC(CO)C(O)C1O (centres undefined) | > 100 µM | > 52.2 µM | 28.4 µM | > 100 µM | 21.6 µM | > 100 µM | > 35.6 µM | 22.7 µM | > 100 µM | > 100 µM | > 21.4 µM | > 84.9 µM | – | – | – | – | – | – | –
14 | CN(C)c1ccc(C=Nc2ccc(-c3nc4ccccc4[nH]3)cc2)cc1 | > 100 µM | > 100 µM | 53.3 µM | > 100 µM | 80 µM | > 100 µM | 65.1 µM | – | > 100 µM | > 100 µM | > 100 µM | > 100 µM | – | – | – | – | – | – | –
15 | CCC(C)C1NC(=O)C(NC(=O)c2c3nc4c(C(=O)NC5C(=O)NC(C(C)CC)C(=O)N6CCCC6C(=O)N(C)CC(=O)N(C)C(C(C)C)C(=O)OC5C)ccc(C)c4oc-3c(C)c(=O)c2N)C(C)OC(=O)C(C(C)C)N(C)C(=O)CN(C)C(=O)C2CCCN2C1=O (centres undefined) (I: TIP[Sar][NMeV] / II: TIP[Sar][NMeV]; ester I:1-I:C, II:1-II:C; linker I:N-II:N via Actinocin(1to9); configuration not given here) | 10.4 µM | – | 0.0186 µM | – | 0.0214 µM and 0.048 µM | 0.0152 µM | 0.00257 µM | 0.0105 µM | 0.248 µM and 0.0692 µM | 0.0841 µM | – | 0.0329 µM | – | – | – | – | – | – | –
16 | Cn1c(=O)[nH]c2nncnc2c1=O | – | 219 µM | 55.2 µM | – | 123 µM | > 625 µM | – | 146 µM | 289 µM | – | > 625 µM | 117 µM | – | – | – | – | – | – | –
17 | Cc1ccccc1N=Nc1c(O)c(S(=O)(=O)O)cc2cc(S(=O)(=O)O)ccc12 | > 100 µM | > 100 µM | > 100 µM | > 100 µM | > 100 µM | > 100 µM | > 100 µM | > 100 µM | > 100 µM | > 100 µM | – | > 100 µM | – | – | – | – | – | – | –
18 | Clc1ccccc1/C=c1\nc(-c2ccccc2)n2c1nc1ccccc12 | > 100 µM | > 100 µM | > 100 µM | > 100 µM | 41.9 µM | > 100 µM | – | > 100 µM | 62.9 µM | > 100 µM | > 100 µM | – | – | – | – | – | – | – | –
19 | CC(=O)OC1CC[C@@]2(C)C(=CC[C@@H]3[C@@H]2CC[C@]2(C)Nc4nn(S(C)(=O)=O)cc4C[C@@H]32)C1 (some centres undefined) | – | – | – | 74.5 µM | 95.3 µM | > 100 µM | > 100 µM | 50.2 µM | – | > 100 µM | – | > 100 µM | – | – | – | – | – | – | –
20 | CC(C)(C)OC(=O)NC(CCCCNC(=O)OCc1ccccc1)C(=O)NCCNc1ccc(NCCNC(=O)C(CCCCNC(=O)OCc2ccccc2)NC(=O)OC(C)(C)C)c2c1C(=O)c1ccccc1C2=O (centres undefined) | > 100 µM | > 75.1 µM | – | > 100 µM | 88.9 µM | > 100 µM | > 100 µM | > 100 µM | > 100 µM | > 49.7 µM | > 100 µM | 70.4 µM | – | – | – | – | – | – | –
21 | O=C(CSc1nc2ccc([N+](=O)[O-])cc2s1)c1ccc2ccccc2c1 | > 100 µM | > 100 µM | > 100 µM | > 100 µM | > 100 µM | > 100 µM | – | > 100 µM | > 100 µM | > 100 µM | > 100 µM | > 100 µM | – | – | – | – | – | – | –
22 | OCc1cn(C(c2ccccc2)(c2ccccc2)c2ccccc2)cn1 | – | > 100 µM | > 100 µM | > 100 µM | – | > 100 µM | > 100 µM | – | – | 95.7 µM | > 100 µM | 68.5 µM | – | – | – | – | – | – | –
23 | O=C(O)c1ccc(C(=O)c2ccccc2C(=O)O)cc1C(=O)O | > 100 µM | > 100 µM | > 100 µM | > 100 µM | > 100 µM | > 100 µM | > 100 µM | > 100 µM | > 100 µM | > 100 µM | > 100 µM | > 100 µM | – | – | – | – | – | – | –
24 | Nc1c(C(=O)O)nnc2cc(Cl)c(Cl)cc12 | > 100 µM | > 100 µM | > 100 µM | > 100 µM | – | – | > 100 µM | > 100 µM | > 100 µM | > 100 µM | > 100 µM | > 100 µM | – | – | – | – | – | – | –
25 | COc1nc2[nH]ccc2c(=O)[nH]1 | – | > 100 µM | > 100 µM | – | > 100 µM | > 100 µM | > 100 µM | – | > 100 µM | – | > 100 µM | > 100 µM | – | – | – | – | – | – | –
26 | COCC1CCCN1c1ccc(C=N/C(C#N)=C(\N)C#N)cc1 (centres undefined) | – | > 100 µM | – | – | > 100 µM | > 100 µM | – | – | > 100 µM | > 100 µM | > 100 µM | 58.1 µM | > 100 µM | 9.19 µM | > 100 µM | > 100 µM | 38.4 µM | > 100 µM | 23.2 µM
